Source: patent US20130150566A1, “TUMOR-TARGETED TNF-RELATED APOPTOSIS-INDUCING LIGAND'S VARIANT AND THE APPLICATION THEREOF” (TARGETPHARMA LABORATORIES (CHANGZHOU) CO., LTD, priority 2011, published 2013)

Legend:
[1] = tested on: mutated Jurkat cells from FADD−/− and Caspase-−/−; experiment: Apoptosis induction in mutated Jurkat cells; type: cell-based
[2] = tested on: COLO-205 cells; experiment: Cell apoptosis by double staining of Annexin V and propidium iodide, COLO-205; type: cell-based; details: COLO-205 cell
Method: (§1) The supernatant is removed and the cells are suspended again by 100 μl binding buffer. Annexin V-FITC (BD Pharmgen Company) is added to which final concentration is 2 μg/ml, and the cells are incubated at the room temperature. 10 minutes later, 400 μl binding buffer is supplemented. The cells are transferred into Flow Analyzer Tube, and 1 μg propidium iodide (Sigma Company) is added into each of the tube. The cells are analyzed by Flow Cytometer within 30 minutes. The experiment is repeated three times for each cell line.
(§2) The activity to induce the tumor cell apoptosis of the tumor-targeted TNF-related apoptosis-inducing ligand's variant NGR-TRAIL is appraised using COLO-205, HCT-15 and HT-29 cells separately (FIG. 4). After induced by series concentration gradient TRAIL variant or TRAIL, the tumor cells are detected by Flow Cytometer according to the double staining method of Annexin V-FITC and Pl. […] The sensibility of Hela cell to TRAIL is increased 8 times because of the addition of the short peptide. […] There is a positive correction between the difference of the apoptosis-inducing to these tumor cells between NGR-L-TRAIL and TRAIL and the expression and the abundance of the CD13 molecule on the surface of tumor cell. […] The NGR domain from NGR-L-TRAIL can direct the protein of TRAIL variant to the surface of target cell to enrichment on the cell surface. […]

[3] = tested on: Hela cells; experiment: Cell apoptosis by double staining of Annexin V and propidium iodide, Hela; type: cell-based, human
Method: as §1, §2

[4] = tested on: HCT-15 tumor; experiment: Anti-tumor effect in HCT-15 colon cancer model in nude mice; type: in vivo; details: HCT-15 model; 400 μg/day per mouse combining with CPT-11; 28th day
Method: The female nude mice bought from ShangHai Experiment Animal Center are 5-6 weeks old. The mouse tail intravenous injection of 100 μg of purified Asialo GM-1 antibody (Wako Chemicals Company, Japan) that is specific antibody blocking natural killer cells is carried out first. 24 hours later, 100 thousands of COLO-205, HT-15 and HT-29 colon cancer cells is subcutaneously vaccinated at the top right side of the back of a mouse. When the volume of tumor arrives 70 cubic millimeters, the mice are grouped randomly and treated. […] Hydrosoluble camptothecin CPT-11([…], trade name: Campto, from Pharmacia/Upjohn Company) is administrated by intravenous administration once a week, for twice in all. The recombinant protein and camptothecin are diluted by phosphate buffer. The volume of tumor is detected by vernier caliper and calculated according the formula: length is multiplied by the square of width and then is divided by 2.
The anti-tumor effect of tumor-targeted TRAIL used together with chemotherapeutic drug CPT-11 is researched in the present invention. Through COLO-205, HC-15 and HT-29 models of athymic nude mice, the anti-tumor effect of NGR-L-TRAIL used together with chemotherapeutic drug CPT-11 is researched, wherein, COLO-205, HC-15 are sensitive to TRAIL, and COLO-205 is most sensitive, and HT-29 is insensitive to TRAIL. […]

50% effective concentration (EC50) (inducing apoptosis) [3]: ~0.145 µg/mL
Substance: TRAIL: recombinant wild human TNF-related apoptosis-inducing ligand
inducing apoptosis [1]: cannot be detected
50% effective concentration (inducing apoptosis) [2]: 3.5 ng/mL
tumor disappeared mice from the 10 administrated mice [4]: 7
